Source: patent US12234223B2, “Phthalazinone compound, and preparation method therefor and medical use thereof” (SHANGHAI JEMINCARE PHARMACEUTICALS CO., LTD, priority 2020, dated 2025)

Assays:
[1] = tested on: VCaP cells; assay: Inhibitory effect on VCaP cell proliferation (Cell Titer Glo); assay type: cell-based; settings: Homo sapiens, 144 h; for IC50: VCaP cells, 5% FBS and 0.1 nM R1881, 6 days; for Emax: maximum degree of VCaP cell proliferation inhibition, 6 days
Description: A tumor cell line Vcap (ATCC Cat. No. CRL-2876) was respectively cultured with DMEM (Gibco Cat. No. 11965-092) medium containing 10% FBS (Gibco Cat. No. 10099-141C). During testing, Vcap cells were replaced with a DMEM culture fluid containing 5% FBS and 0.1 nM R1881 (Sigma Cat. No. R0908). The assay method was as follows:
Vcap cells were seeded to a 384-well plate (Perkin Elmer Cat. No. 6007460) at a cell density of 1200 cells/well and a volume of 20 μL/well; after the cells were incubated overnight in a carbon dioxide incubator (Thermo), the prepared compound solutions with different concentrations were added at a volume of 5 μL/well; meanwhile, a corresponding solvent was provided as a control; after the cells were continuously incubated in the incubator for 6 days, the cell plate and the contents thereof were equilibrated to room temperature; 25 μL of a Cell Titer Glor (Promega Cat. No. G7573) reagent was added to each well; after vibration and uniform mixing, incubation in the dark was performed for 10-30 minutes, and a signal value was detected with Envision microplate reader (PerkinElmer).
A percentage inhibition rate of compound-treated wells was calculated through solvent control wells on the plate, GraphPad prism was used to fit the percentage inhibition rate data corresponding to different concentrations, and IC50 value was calculated by a 4-parameter nonlinear logistic formula.
Emax: a maximum degree of VCaP cell proliferation inhibition. IC50: a compound concentration required to achieve half the maximum degree of VCaP cell proliferation inhibition.

[2] = target: T1, Androgen receptor (Homo sapiens, UniProt P10275); assay: Androgen receptor In-Cell-Western assay (AR degradation in VCaP cells); assay type: cell-based; settings: 24 hours treatment; for DC50: concentration for half the maximum degradation degree of AR in VCaP cells; for Dmax: maximum degradation degree of AR in VCaP cells
T1 construct: Dmax: a maximum degradation degree of AR in VCaP cells; endogenous in cells; host or cells: VCaP cells
T1 sequence (P10275 1-920): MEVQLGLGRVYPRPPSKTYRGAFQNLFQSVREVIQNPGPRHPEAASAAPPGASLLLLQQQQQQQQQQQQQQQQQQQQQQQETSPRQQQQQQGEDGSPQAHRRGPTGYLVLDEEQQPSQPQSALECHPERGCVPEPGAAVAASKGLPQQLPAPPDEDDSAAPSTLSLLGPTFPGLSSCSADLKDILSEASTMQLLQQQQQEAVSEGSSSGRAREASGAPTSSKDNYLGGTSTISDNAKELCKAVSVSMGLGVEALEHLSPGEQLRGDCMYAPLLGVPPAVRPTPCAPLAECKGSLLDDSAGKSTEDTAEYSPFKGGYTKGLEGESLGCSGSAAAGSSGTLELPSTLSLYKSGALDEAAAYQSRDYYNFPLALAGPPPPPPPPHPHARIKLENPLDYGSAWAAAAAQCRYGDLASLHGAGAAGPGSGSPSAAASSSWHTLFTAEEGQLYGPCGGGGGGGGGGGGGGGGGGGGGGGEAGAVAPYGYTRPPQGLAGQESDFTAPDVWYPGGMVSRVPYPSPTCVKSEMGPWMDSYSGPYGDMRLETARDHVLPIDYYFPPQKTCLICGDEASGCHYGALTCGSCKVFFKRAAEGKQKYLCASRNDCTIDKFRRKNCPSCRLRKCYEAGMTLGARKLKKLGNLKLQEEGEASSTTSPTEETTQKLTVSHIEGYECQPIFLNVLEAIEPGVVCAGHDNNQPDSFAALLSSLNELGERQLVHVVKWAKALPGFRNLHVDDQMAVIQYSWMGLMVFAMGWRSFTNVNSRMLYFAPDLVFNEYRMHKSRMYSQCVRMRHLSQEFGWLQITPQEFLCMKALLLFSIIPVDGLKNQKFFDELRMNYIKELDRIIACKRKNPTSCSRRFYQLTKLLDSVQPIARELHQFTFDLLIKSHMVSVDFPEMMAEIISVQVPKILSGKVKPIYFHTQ
Description: This assay evaluated compound performance in VCap cells. An intracellular androgen receptor was assayed by In-Cell-Western according to the assay procedure described below.
In a 96-well cell culture plate (Corning 3599) pretreated by poly-D-Lysin, Vcap cells were seeded to a Vcap cell assay medium [phenol red containing DMEM (Gibco Cat. No.: 11995065); fetal bovine serum FBS (Gibco Cat. No.: 10099141C)] at a volume of 100 μL/well and a cell density of 50,000 cells/well. Cells were cultured for at least two days. • 1. First, cells were treated with a compound. The compound was subjected to a gradient dilution by using DMSO and a cell culture medium, so that DMSO contained in the cell culture plate was diluted to 0.5%: a polypropylene plate was used according to the following protocol: • (1) (i) A 200× stock solution plate was prepared in DMSO; (ii) a 10 mM stock solution was diluted at 1:4 (10 μL stock solution+40 μL DMSO=2000 uM) with DMSO to enter row 2; (iii) a 1:4 (10 μL protac+40 μL DMSO) gradient dilution was performed from row 2 to row 9, row 1 was reserved for a 2000 uM reference compound and row 10 was reserved for DMSO. (iv) There were 8 concentrations (the final concentrations on the 200× plate was 2000 uM, 400 uM, 80 uM, etc.) in total. (2) (i) A 3× stock solution was prepared in the medium; (ii) 3 μL of the 200× stock solution was transferred to 197 μL of the medium (by a 12-channel pipette, from row 1 to row 10), i.e. a 3× stock solution plate. (iii) Uniform mixing was performed for the stock solution plate. (3) (i) The medium of Vcap cells was replaced with a fresh medium, with the medium volume of 100 μL. (ii) The uniformly-mixed 3× stock solution was transferred to the cell culture plate (by the 12-channel pipette, 50 μL of the stock solution was transferred from row 1 to row 10). (iii) The cells were cultured for 24 hours. • 2. The expression level of the intracellular androgen receptor after compound treatment was detected, and assay was performed according to the following method. • (1) (i) An equal volume of 8% paraformaldehyde was added to the cell culture plate for cell fixation. A fixative solution in the cell plate was discarded, and the cell plate was washed three times with PBS. (ii) A Triton solution was prepared (the stock solution was diluted at 1:1000). The solution in the cell plate was discarded, and a volume of 200 μL of a Triton diluent was added to each well. (iii) A 2× blocking solution was prepared (a 10× blocking stock solution was diluted at 1:4). The solution in the cell plate was discarded, and a volume of 100 μL of the 2× blocking solution was added to each well. (iv) A primary antibody solution (Androgen receptor Rabbit mAb, Cell Signaling Technology Cat. No.: 5153; 1:1000 dilution) was prepared. The solution in the cell plate was discarded, a volume of 100 μL of a primary antibody diluent was added to each well, and incubation was performed at 4 degrees overnight. (v) The primary antibody solution was discarded, and the cell plate was washed with 1× Wash buffer (Wash buffer in the present application means a washing buffer solution). (vi) A secondary antibody solution (Goat anti Rabbit IgG (H+L) Secondary Antibody, HRP, Thermo Cat. No.: 31460; 1:5000 dilution) was prepared, and a volume of 100 μL of a secondary antibody diluent was added to each well for incubation. (vii) The secondary antibody solution in the cell plate was discarded, and the cell plate was washed with 1× Wash buffer. (viii) A TMB chromogenic solution (BD Cat. No.: 550534) was prepared, and a volume of 100 μL of the chromogenic solution was added to each well. (ix) A volume of 50 μL of a stop solution (BD Cat. No.: 550534) was added to each well. (x) Absorption values at OD 450 nm and 570 nm were read by EnVision. (2) (i) Normalized analysis was performed for the number of cells in each well. The solution in the cell plate was discarded, and the cell plate was washed three times with wash buffer. […]

Row | Structure (SMILES) | IC50 [1] [nM] | DC50 [2] [nM] | Dmax [2] [%] | Emax [1] [%]
1 | CC1(C)[C@H](NC(=O)c2cnc(N3CCC(CN4CCN(c5ccc6c(=O)n(C7CCC(=O)NC7=O)ncc6c5)CC4)CC3)nc2)C(C)(C)[C@H]1Oc1ccc(C#N)c(Cl)c1 (some centres unmarked) [Compound 2] | 11 | 5.3 | 114 | 60
2 | CC1(C)[C@H](NC(=O)c2ccc(N3CCC(CN4CCN(c5ccc6c(=O)n(C7CCC(=O)NC7=O)ncc6c5)CC4)CC3)cc2)C(C)(C)[C@H]1Oc1ccc(C#N)c(C(F)(F)F)c1 (some centres unmarked) [Compound 3] | – | 12 | 104 | –
3 | CC1(C)[C@H](NC(=O)c2ccc(N3CCC(CN4CCN(c5ccc6c(=O)n(C7CCC(=O)NC7=O)ncc6c5)CC4)CC3)nc2)C(C)(C)[C@H]1Oc1ccc(C#N)c(Cl)c1 (some centres unmarked) [Compound 4] | 33 | 6.8 | 98 | 69
4 | CC1(C)[C@H](NC(=O)c2ccc(N3CCC(CN4CCN(c5ccc6c(=O)n(C7CCC(=O)NC7=O)ncc6c5)CC4)CC3)c(F)c2)C(C)(C)[C@H]1Oc1ccc(C#N)c(Cl)c1 (some centres unmarked) [Compound 5] | 37 | 8.4 | 105 | 62
5 | Cc1cc(O[C@H]2C(C)(C)[C@H](NC(=O)c3ccc(N4CCC(CN5CCN(c6ccc7c(=O)n(C8CCC(=O)NC8=O)ncc7c6)CC5)CC4)cc3)C2(C)C)ccc1C#N (some centres unmarked) [Compound 7] | – | 15 | 92 | –
6 | CC1(C)C(NC(=O)c2ccc(N3CCC(CN4CCN(c5ccc6c(=O)n(C7CCC(=O)NC7=O)ncc6c5)CC4)CC3)nn2)C(C)(C)C1Oc1ccc(C#N)c(Cl)c1 (centres unmarked) [Compound 8] | – | 8.9 | 75 | –
7 | CC1(C)[C@H](NC(=O)c2cnc(N3CCC(CN4CCN(c5ccc6c(=O)n(C7CCC(=O)NC7=O)ncc6c5)CC4)CC3)cn2)C(C)(C)[C@H]1Oc1ccc(C#N)c(Cl)c1 (some centres unmarked) [Compound 10] | – | 35 | 87 | –
8 | CC1(C)[C@H](NC(=O)c2ccc(N3CCC(CN4CCN(c5ccc6cnn(C7CCC(=O)NC7=O)c(=O)c6c5)CC4)CC3)cc2)C(C)(C)[C@H]1Oc1ccc(C#N)c(Cl)c1 (some centres unmarked) [Compound 11] | – | 38 | 80 | –
9 | N#Cc1ccc(O[C@H]2CC[C@H](NC(=O)c3ccc(N4CCC(CN5CCN(c6ccc7c(=O)n(C8CCC(=O)NC8=O)ncc7c6)CC5)CC4)cc3)CC2)cc1Cl (some centres unmarked) [Compound 13] | – | 9.6 | 94 | –
10 | N#Cc1ccc(O[C@H]2CC[C@H](NC(=O)c3cnc(N4CCC(CN5CCN(c6ccc7c(=O)n(C8CCC(=O)NC8=O)ncc7c6)CC5)CC4)nc3)CC2)cc1Cl (some centres unmarked) [Compound 14] | 20 | 11 | 91 | 61
11 | N#Cc1ccc(O[C@H]2CC[C@H](NC(=O)c3ccc(N4CC(CN5CCN(c6ccc7c(=O)n(C8CCC(=O)NC8=O)ncc7c6)CC5)C4)cc3)CC2)cc1Cl (some centres unmarked) [Compound 15] | – | 16 | 84 | –

Further lines, with some results ahead:

Row | IC50 [1] [nM] | DC50 [2] [nM] | Dmax [2] [%] | Structure (SMILES) | Emax [1] [%]
12 | – | 5.7 | 92 | CC1(C)[C@H](NC(=O)c2ccc(N3CCC(CN4CCN(c5ccc6c(=O)n(C7CCC(=O)NC7=O)ncc6c5)CC4)C3)cc2)C(C)(C)[C@H]1Oc1ccc(C#N)c(Cl)c1 (some centres unmarked) [Compound 16] | –
13 | – | 6.9 | 88 | CC1(C)[C@H](NC(=O)c2ccc(N3CCC(CN4CC5CC4CN5c4ccc5c(=O)n(C6CCC(=O)NC6=O)ncc5c4)CC3)cc2)C(C)(C)[C@H]1Oc1ccc(C#N)c(Cl)c1 (some centres unmarked) [Compound 17] | –
14 | 42 | – | – | CC1(C)[C@H](NC(=O)c2ccc(N3CC(CN4CCN(c5ccc6c(=O)n(C7CCC(=O)NC7=O)ncc6c5)CC4)C3)cc2)C(C)(C)[C@H]1Oc1ccc(C#N)c(Cl)c1 (some centres unmarked) [Compound 20] | 60
15 | 20 | 6.9 | 98 | CC1(C)[C@H](NC(=O)c2cnc(N3CCC(CCN4CCN(c5ccc6c(=O)n(C7CCC(=O)NC7=O)ncc6c5)CC4)C3)nc2)C(C)(C)[C@H]1Oc1ccc(C#N)c(Cl)c1 (some centres unmarked) [Compound 23] | 56
16 | 18 | 6.8 | 106 | CC1(C)[C@H](NC(=O)c2cnc(N3CCC(CCN4CCN(c5ccc6c(=O)n(C7CCC(=O)NC7=O)ncc6c5)CC4)CC3)nc2)C(C)(C)[C@H]1Oc1ccc(C#N)c(Cl)c1 (some centres unmarked) [Compound 24] | 53
17 | 27 | 10 | 116 | CC1(C)[C@H](NC(=O)c2cnc(N3CCCC(CN4CCN(c5ccc6c(=O)n(C7CCC(=O)NC7=O)ncc6c5)CC4)CC3)nc2)C(C)(C)[C@H]1Oc1ccc(C#N)c(Cl)c1 (some centres unmarked) [Compound 25] | 62
18 | – | 5.2 | 145 | CC1(C)[C@H](NC(=O)c2ccc(N3CCC(CN4CCN(c5ccc6c(=O)n(C7CCC(=O)NC7=O)nc(C(F)(F)F)c6c5)CC4)CC3)cc2)C(C)(C)[C@H]1Oc1ccc(C#N)c(Cl)c1 (some centres unmarked) [Compound 32] | –
